Data on 4 compounds can be found in PMC8550792, “Evolution of kinase polypharmacology across HSP90 drug discovery” (Cell Chemical Biology, 2021).

SMILES strings stand for the structures.

What all share (assay): biochemical
Assay type in all cases: biochemical

For assay [1], the target named is T1, 382 unique human kinases (Homo sapiens, UniProt P21802, E565G).
T1 construct: purchased Reaction Biology (HotSpot contract assay)
The following applies: kinase FGFR2 (E565G), compound 10 uM; for remaining activity at 10 µM: read-out: % Enzyme Activity (relative to DMSO controls).

The target in assay [2] is T2, 382 unique human kinases (Homo sapiens, UniProt Q8NEV4).
T2 construct: purchased Reaction Biology (HotSpot contract assay)
The following applies: MYO3A, 10 uM; for remaining activity at 10 µM: read-out: % Enzyme Activity (relative to DMSO controls).

The target of assay [3] is T3, 382 unique human kinases (Homo sapiens, UniProt Q9Y6M4).
T3 construct: purchased Reaction Biology (HotSpot contract assay)
The following applies: kinase CK1g3, compound 10 uM; for remaining activity at 10 µM: read-out: % Enzyme Activity (relative to DMSO controls).

Assay [4] has as its target T4, 382 unique human kinases (Homo sapiens, UniProt Q04771).
T4 construct: purchased Reaction Biology (HotSpot contract assay)
T4 sequence (Q04771 21-509): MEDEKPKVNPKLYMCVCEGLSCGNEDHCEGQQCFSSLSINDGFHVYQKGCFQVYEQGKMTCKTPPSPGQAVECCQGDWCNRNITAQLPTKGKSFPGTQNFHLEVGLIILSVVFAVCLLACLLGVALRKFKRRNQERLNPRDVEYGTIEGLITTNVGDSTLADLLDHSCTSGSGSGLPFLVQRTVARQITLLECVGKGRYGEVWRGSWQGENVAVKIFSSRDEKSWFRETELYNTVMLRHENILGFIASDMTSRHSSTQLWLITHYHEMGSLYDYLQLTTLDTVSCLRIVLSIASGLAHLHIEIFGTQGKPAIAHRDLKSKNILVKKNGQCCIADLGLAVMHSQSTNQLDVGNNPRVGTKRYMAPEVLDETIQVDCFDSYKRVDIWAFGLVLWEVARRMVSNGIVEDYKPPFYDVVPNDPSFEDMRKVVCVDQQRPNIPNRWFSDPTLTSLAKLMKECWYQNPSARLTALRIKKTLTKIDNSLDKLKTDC
The following applies: ALK2/ACVR1, compound at 10 uM, duplicate values; for remaining activity at 10 µM: read-out: % Enzyme Activity (relative to DMSO controls).

Assay [5] deals with T5, 382 unique human kinases (Homo sapiens, UniProt P36507).
T5 construct: purchased Reaction Biology (HotSpot contract assay)
T5 sequence (P36507 whole entry): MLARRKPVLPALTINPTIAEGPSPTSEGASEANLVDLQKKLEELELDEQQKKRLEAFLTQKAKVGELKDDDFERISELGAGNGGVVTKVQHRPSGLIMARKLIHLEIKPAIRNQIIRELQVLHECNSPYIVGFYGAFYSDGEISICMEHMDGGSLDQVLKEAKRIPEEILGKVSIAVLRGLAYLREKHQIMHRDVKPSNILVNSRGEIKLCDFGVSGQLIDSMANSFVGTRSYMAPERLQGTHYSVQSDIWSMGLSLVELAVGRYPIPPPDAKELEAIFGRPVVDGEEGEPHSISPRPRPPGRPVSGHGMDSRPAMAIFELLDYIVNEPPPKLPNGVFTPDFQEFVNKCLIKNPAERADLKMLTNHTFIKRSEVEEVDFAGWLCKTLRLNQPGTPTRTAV
To be noted: MEK2, 10 uM; for remaining activity at 10 µM: read-out: % Enzyme Activity (relative to DMSO controls).

Assay [6] concerns the target T6, 382 unique human kinases (Homo sapiens, UniProt O75116).
T6 construct: purchased Reaction Biology (HotSpot contract assay)
To be noted: ROCK2, 10 uM; for remaining activity at 10 µM: read-out: % Enzyme Activity (relative to DMSO controls).

In assay [7] the target is T7, 382 unique human kinases (Homo sapiens, UniProt Q16832).
T7 construct: purchased Reaction Biology (HotSpot contract assay)
T7 sequence (Q16832 22-855): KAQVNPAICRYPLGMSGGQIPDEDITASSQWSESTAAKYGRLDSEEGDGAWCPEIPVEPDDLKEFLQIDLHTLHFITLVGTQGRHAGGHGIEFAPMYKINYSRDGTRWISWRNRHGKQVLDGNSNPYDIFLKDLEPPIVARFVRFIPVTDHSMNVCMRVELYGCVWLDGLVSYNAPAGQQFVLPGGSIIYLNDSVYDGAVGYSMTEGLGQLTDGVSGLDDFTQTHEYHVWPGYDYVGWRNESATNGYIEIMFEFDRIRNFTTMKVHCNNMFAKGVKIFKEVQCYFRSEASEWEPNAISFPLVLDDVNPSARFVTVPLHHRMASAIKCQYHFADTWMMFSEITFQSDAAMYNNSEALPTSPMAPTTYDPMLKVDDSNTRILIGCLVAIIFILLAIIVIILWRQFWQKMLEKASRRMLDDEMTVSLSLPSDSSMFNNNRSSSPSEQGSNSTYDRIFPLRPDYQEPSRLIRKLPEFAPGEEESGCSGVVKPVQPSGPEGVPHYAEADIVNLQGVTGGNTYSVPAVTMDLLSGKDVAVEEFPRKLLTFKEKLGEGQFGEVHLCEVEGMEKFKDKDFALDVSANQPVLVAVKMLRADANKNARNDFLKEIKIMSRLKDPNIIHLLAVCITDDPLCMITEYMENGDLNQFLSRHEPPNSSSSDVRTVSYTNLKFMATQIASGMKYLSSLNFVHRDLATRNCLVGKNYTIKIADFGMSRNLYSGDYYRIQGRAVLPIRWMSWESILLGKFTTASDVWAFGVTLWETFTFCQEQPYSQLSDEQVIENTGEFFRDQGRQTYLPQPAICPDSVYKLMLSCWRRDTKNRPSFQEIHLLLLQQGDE
To be noted: DDR2, [ATP] 5 µM.

Assay [8] has as its target T8, 382 unique human kinases (Homo sapiens, UniProt P00519, E255V).
T8 construct: purchased Reaction Biology (HotSpot contract assay)
The following applies: ABL1 (E255V), [ATP] 10 µM, compound 10 uM; for remaining activity at 10 µM: read-out: % Enzyme Activity (relative to DMSO controls).

In assay [9] the target is T9, 382 unique human kinases (Homo sapiens, UniProt P07949, V778I).
T9 construct: purchased Reaction Biology (HotSpot contract assay)
T9 sequence (P07949 29-1114 V778I): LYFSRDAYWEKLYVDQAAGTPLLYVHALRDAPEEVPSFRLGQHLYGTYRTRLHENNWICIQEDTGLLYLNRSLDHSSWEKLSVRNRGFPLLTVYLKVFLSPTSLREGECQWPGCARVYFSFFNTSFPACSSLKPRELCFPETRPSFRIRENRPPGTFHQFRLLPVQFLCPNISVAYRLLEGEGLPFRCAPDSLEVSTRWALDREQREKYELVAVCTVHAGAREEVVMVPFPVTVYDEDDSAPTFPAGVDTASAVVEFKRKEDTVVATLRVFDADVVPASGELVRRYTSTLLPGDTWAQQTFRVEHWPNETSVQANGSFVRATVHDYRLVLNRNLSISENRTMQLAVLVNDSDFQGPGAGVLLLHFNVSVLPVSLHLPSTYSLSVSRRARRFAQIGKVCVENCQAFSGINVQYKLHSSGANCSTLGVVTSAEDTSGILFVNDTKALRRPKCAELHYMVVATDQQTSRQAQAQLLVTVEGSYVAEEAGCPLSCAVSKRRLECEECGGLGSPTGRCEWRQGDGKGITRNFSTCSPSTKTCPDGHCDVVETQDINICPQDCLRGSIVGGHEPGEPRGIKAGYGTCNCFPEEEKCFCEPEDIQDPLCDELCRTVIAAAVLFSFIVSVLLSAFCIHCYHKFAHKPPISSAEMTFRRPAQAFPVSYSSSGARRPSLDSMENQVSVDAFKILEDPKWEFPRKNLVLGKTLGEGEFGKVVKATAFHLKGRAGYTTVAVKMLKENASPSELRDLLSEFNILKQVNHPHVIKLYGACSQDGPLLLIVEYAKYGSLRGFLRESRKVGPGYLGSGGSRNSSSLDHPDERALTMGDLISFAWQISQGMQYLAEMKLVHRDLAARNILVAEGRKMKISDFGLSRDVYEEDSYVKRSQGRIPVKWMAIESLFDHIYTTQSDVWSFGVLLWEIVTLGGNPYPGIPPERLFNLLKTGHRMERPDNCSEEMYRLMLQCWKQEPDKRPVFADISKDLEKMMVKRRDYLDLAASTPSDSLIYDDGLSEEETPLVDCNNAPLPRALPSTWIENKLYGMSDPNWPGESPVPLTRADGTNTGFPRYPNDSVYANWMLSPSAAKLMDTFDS
The following applies: RET (V778I), [ATP] 10 µM, compound 10 uM; for remaining activity at 10 µM: read-out: % Enzyme Activity (relative to DMSO controls).

In assay [10] the target is T10, 382 unique human kinases (Homo sapiens, UniProt Q06187).
T10 construct: purchased Reaction Biology (HotSpot contract assay)
The following applies: BTK, [ATP] 50 µM, compound 10 uM; for remaining activity at 10 µM: read-out: % Enzyme Activity (relative to DMSO controls).

[11] abbreviates: compound 10 uM, read-out: % Enzyme Activity (relative to DMSO controls).

T8 sequence (P00519 whole entry E255V): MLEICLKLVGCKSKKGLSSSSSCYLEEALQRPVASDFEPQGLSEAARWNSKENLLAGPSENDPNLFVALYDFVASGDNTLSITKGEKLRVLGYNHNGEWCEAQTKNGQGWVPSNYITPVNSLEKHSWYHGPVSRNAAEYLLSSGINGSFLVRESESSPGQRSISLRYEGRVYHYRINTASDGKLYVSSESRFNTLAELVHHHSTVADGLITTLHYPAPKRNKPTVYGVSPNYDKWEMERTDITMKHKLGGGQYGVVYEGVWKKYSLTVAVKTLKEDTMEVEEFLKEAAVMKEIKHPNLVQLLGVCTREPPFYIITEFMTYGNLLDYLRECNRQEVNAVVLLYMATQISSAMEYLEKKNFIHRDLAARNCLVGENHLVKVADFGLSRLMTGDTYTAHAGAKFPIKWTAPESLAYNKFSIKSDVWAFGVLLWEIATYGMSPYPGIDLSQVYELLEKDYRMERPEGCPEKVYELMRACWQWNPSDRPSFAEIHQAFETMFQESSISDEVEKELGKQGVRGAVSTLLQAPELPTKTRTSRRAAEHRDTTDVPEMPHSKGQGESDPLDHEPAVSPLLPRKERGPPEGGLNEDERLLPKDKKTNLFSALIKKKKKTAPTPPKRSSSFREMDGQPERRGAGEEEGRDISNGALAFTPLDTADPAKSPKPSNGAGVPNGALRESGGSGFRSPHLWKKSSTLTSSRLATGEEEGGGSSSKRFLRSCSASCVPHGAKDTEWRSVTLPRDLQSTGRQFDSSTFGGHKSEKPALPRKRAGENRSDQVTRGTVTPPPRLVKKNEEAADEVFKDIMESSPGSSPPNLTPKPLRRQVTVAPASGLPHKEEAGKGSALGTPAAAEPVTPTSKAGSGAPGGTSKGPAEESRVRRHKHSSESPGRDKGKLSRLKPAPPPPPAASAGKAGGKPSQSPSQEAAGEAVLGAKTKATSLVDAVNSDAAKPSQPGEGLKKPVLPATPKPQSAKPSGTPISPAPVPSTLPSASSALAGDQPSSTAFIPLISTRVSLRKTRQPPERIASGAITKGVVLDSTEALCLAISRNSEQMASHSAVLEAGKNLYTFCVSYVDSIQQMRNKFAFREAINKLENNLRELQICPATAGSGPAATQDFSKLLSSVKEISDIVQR
T6 sequence (O75116 whole entry): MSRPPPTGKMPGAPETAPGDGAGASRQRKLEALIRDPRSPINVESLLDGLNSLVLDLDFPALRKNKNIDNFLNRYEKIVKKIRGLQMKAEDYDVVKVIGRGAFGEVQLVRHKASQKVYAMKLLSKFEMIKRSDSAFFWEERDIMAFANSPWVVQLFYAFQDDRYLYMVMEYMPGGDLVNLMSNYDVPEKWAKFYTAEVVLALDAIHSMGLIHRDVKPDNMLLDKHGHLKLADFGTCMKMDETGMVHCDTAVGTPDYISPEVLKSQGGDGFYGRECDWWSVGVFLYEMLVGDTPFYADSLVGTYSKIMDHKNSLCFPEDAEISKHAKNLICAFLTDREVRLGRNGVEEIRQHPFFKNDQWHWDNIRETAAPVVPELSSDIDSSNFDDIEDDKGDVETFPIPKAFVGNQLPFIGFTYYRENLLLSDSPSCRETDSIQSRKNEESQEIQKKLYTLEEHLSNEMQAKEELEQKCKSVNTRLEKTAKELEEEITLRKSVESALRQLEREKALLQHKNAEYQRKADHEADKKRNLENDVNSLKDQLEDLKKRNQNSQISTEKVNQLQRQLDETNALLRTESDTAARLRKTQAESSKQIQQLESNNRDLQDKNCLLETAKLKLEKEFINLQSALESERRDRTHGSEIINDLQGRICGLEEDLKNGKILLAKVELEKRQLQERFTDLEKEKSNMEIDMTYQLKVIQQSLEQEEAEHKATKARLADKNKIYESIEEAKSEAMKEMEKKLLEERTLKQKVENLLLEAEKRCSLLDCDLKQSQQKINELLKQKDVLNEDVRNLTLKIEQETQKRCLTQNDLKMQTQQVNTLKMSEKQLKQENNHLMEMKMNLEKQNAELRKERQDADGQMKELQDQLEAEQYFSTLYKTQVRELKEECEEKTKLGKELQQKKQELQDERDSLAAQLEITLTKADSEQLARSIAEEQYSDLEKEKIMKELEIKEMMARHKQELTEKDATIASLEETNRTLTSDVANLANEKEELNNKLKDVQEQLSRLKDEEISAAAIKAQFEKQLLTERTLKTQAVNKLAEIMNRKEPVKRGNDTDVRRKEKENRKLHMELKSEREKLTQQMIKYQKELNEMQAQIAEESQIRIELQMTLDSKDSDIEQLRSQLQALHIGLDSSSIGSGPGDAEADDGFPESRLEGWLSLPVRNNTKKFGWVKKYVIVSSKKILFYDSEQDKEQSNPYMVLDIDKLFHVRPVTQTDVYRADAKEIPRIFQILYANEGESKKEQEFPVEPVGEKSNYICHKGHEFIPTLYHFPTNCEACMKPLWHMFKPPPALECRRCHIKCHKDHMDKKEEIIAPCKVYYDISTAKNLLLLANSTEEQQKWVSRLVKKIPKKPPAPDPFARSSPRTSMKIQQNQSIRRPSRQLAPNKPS
T1 sequence (P21802 22-821 E565G): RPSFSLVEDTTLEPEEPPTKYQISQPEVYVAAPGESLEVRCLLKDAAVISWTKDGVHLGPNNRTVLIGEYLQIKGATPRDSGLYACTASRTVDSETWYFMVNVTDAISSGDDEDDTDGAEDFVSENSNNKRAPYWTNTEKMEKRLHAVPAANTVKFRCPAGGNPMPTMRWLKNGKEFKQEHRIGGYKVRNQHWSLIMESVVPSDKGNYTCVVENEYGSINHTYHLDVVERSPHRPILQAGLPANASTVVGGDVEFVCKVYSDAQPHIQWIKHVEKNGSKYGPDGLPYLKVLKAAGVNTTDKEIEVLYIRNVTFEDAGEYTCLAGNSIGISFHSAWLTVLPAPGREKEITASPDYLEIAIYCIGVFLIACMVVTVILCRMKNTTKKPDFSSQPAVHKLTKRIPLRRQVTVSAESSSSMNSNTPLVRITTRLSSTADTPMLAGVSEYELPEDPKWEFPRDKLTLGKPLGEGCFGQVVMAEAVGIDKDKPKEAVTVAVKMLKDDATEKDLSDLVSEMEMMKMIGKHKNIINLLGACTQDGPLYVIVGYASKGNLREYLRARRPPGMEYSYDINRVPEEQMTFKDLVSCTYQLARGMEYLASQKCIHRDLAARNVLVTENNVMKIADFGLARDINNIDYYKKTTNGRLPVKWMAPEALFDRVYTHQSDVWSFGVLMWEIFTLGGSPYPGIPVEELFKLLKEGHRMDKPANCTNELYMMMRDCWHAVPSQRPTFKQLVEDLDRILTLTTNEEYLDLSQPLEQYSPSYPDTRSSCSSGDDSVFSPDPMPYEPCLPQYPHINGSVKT

Take `CC(C)c1cc(-c2n[nH]c(=O)n2-c2ccc3c(ccn3C)c2)c(O)cc1O` [Ganetespib (STA9090)]: the remaining activity at 10 µM in [1] was determined as 79.4%; in assay [2], 97.3%; in assay [3], 82%; in assay [4], 125%; in [5], 61.1%.
In the case of `CC(C)c1cc(-c2n[nH]c(=O)n2-c2ccc3c(ccn3C)c2)c(O)cc1O` [Ganetespib], the remaining activity at 10 µM in assay [6] came out at 105%; in [7] (setting [11]) it was 14.5%; in assay [8], 9.72%; in assay [9] it was 56.4%; in [10] it was 56%. In addition, in [7] (compound 1 uM, read-out: % Enzyme Activity (relative to DMSO controls)), the remaining activity at 1 µM turned out to be 51.9%.
For `CCNC(=O)c1noc(-c2cc(C(C)C)c(O)cc2O)c1-c1ccc(CN2CCOCC2)cc1` [Luminespib (AUY-922)], the “% Enzyme Activity (relative to DMSO controls)” value in [1] came to 97.20%; in assay [2], 74.72%; in [3], 98.54%; in assay [4], 117.92%; in assay [5], 98.43%. Moreover, the remaining activity at 10 µM in assay [1] was 98.6%; in assay [2], 76.4%; in [3], 99.7%; in assay [4], 120%; in [5], 99.5%.
`CCNC(=O)c1noc(-c2cc(C(C)C)c(O)cc2O)c1-c1ccc(CN2CCOCC2)cc1` [Luminespib]: the “% Enzyme Activity (relative to DMSO controls)” value in assay [6] is listed as 98.18%; in [7] (compound 10 uM), 105.89%; in assay [8], 9.69%; in assay [9] it was 105.36%; in assay [10], 74.40%. Also, the remaining activity at 10 µM in assay [6] was 99.3%; in assay [7] (setting [11]), 107%; in assay [8] it was 9.81%; in [9], 111%; in [10], 74.9%.
